Measured values published in PubChem BioAssay (NCI).
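Cells were grown in 96-well plates and exposed to each compound for 48 hours at five concentrations; endpoints were interpolated linearly between bracketing concentrations, or set to the highest concentration if not reached. TGI is the concentration that stops growth completely.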

Columns and labels:
Assay in all cases: NCI-60 cell line screen, 48 h
SF-539 CNS = test system: SF-539 CNS
IGROV1 ovarian = test system: IGROV1 ovarian
SR leukemia = test system: SR leukemia
LOX IMVI melanoma = test system: LOX IMVI melanoma
HL-60(TB) leukemia = test system: HL-60(TB) leukemia
T-47D breast = test system: T-47D breast
SNB-19 CNS = test system: SNB-19 CNS
SW-620 colon = test system: SW-620 colon
MDA-N = test system: MDA-N
SF-295 CNS = test system: SF-295 CNS
HS 578T breast = test system: HS 578T breast
MDA-MB-435 = test system: MDA-MB-435
MCF7 breast = test system: MCF7 breast
TK-10 renal = test system: TK-10 renal
HOP-62 NSCLC = test system: HOP-62 NSCLC
M14 melanoma = test system: M14 melanoma
HCC-2998 colon = test system: HCC-2998 colon
MDA-MB-231 breast = test system: MDA-MB-231 breast
786-0 renal = test system: 786-0 renal

SMILES	TGI (SF-539 CNS) [µM]	TGI (IGROV1 ovarian) [µM]	TGI (SR leukemia) [µM]	TGI (LOX IMVI melanoma) [µM]	TGI (HL-60(TB) leukemia) [µM]	TGI (T-47D breast) [µM]	TGI (SNB-19 CNS) [µM]	TGI (SW-620 colon) [µM]	TGI (MDA-N) [µM]	TGI (SF-295 CNS) [µM]	TGI (HS 578T breast) [µM]	TGI (MDA-MB-435) [µM]	TGI (MCF7 breast) [µM]	TGI (TK-10 renal) [µM]	TGI (HOP-62 NSCLC) [µM]	TGI (M14 melanoma) [µM]	TGI (HCC-2998 colon) [µM]	TGI (MDA-MB-231 breast) [µM]	TGI (786-0 renal) [µM]
CC(=O)OCCCCN1C(=O)CSc2ccccc21	> 100	> 100	> 100	> 100	> 100	> 100	> 100	> 100	> 100	> 100	> 100	> 100	> 100	> 100	> 100	–	–	–	–
CC(C)CNCCc1ccccn1	–	> 100	–	> 100	> 100	–	> 100	> 100	> 100	> 100	> 100	> 100	> 100	> 100	> 100	> 100	> 100	> 100	> 100
CCOc1ccccc1Nc1ccc(N)cc1S(=O)(=O)O	–	> 100	> 100	> 100	–	> 100	> 100	> 100	> 100	> 100	> 100	> 100	–	> 100	> 100	> 100	> 100	> 100	> 100
COc1ccc(C(=O)CCN(C)C)c2ccccc12	33.1	40.2	–	42.8	37	49.5	> 100	49.3	50.5	> 100	57	48.1	33.2	> 54.4	> 78.3	98.3	36	35.6	27.4
O=Cc1ccccc1CCn1c(=O)c2cc3c(=O)n(CCc4ccccc4C=O)c(=O)c3cc2c1=O	> 100	> 100	–	> 100	> 100	–	> 100	> 100	–	> 100	–	–	–	> 100	–	–	–	–	–
CN1c2c(nc(N)[nH]c2=O)NCC1CCNc1ccc(C(=O)NC(CCC(=O)O)C(=O)O)cc1 (stereo not given)	2190	2470	2530	783	2250	4260	3250	1810	430	2260	5910	1770	2030	2500	1930	1770	2080	3050	1840
N#Cc1ccc([N+](=O)[O-])cc1NC(N)=S	> 100	> 100	> 100	–	–	–	> 100	> 100	–	> 100	–	–	–	–	> 100	> 100	> 100	–	–
CCOc1cc(C2SCC(=O)N2c2ccc3c(c2)Oc2c(Cl)c4c(c(Cl)c2=N3)Oc2cc(N3C(=O)CSC3c3ccc(O)c(OCC)c3)ccc2N=4)ccc1O (stereo not given)	28.2	> 100	> 100	> 100	> 100	> 100	–	> 100	> 100	> 100	> 100	> 100	> 100	> 100	> 100	63.8	> 100	> 100	> 100
COc1nc2ccc(CNc3ccc(C(=O)NC(CCC(=O)O)C(=O)O)cc3)cc2nc1OC (stereo not given)	–	> 100	> 100	> 100	> 100	> 100	> 100	> 100	> 100	> 100	> 100	> 100	> 100	> 100	> 100	> 100	> 100	> 100	–
C=CCn1c(=O)c(Br)nn(CCOCP(=O)(OCC)OCC)c1=O	> 100	> 100	> 100	> 100	> 100	> 100	> 100	> 100	> 100	–	> 100	> 100	> 100	–	> 100	> 100	> 100	> 100	–
COc1cc(NC(C)=O)ccc1C(=O)N/N=C/c1ccco1	> 100	> 100	> 100	> 100	> 100	> 100	> 100	> 100	> 100	> 100	> 100	> 100	> 100	–	> 100	> 100	–	–	> 100
CC[C@@H]1CSC(/C=C/C2OC3OC(C)(C)OC3C3OC(C)(C)OC23)=N1 (stereo not given in full)	30.4	26	37.4	20.6	5.67	16.8	54.8	11.2	21.3	46.6	75.2	20	16.8	14.6	59.4	22.9	12.7	25.7	15.9
CC(ON1[C@](C)(c2ccccc2)CC[C@@]1(C)c1ccccc1)c1ccccc1 (stereo not given in full)	> 100	> 100	–	> 100	61.5	87.3	93	> 100	–	> 100	> 100	> 100	–	> 100	> 100	> 100	52.6	> 100	> 100
CC(C)C1=CC2=CC[C@@H]3[C@](C)(CCC[C@@]3(C)C(=O)O)[C@H]2CC1	> 100	> 100	> 100	> 100	> 88.3	–	> 100	> 100	–	> 100	–	–	–	> 100	> 100	> 100	> 100	–	–
